Experimental findings from patent US11840525B2, “Use of AURKB small-molecule inhibitors for treatment of non-small cell lung cancer” (Nanjing China-Australia Institute of Translational Medicine …, priority 2016, dated 2023) are described below.

Like-named read-outs stand apart in the source and are kept apart here.

For orientation: IC50 means the midpoint of a concentration-inhibition curve.

In one data set the test system is HepG-2. Description: Growth inhibition of tumor cells, HepG-2. The class given is cell-based. The note with it: Homo sapiens, HepG2; read-out: IC50 against tumor cells, HepG-2. Here is the method: (§1) Lung cancer cells A549 were separated into a 96-well plate and respectively added with 10 mM TZ47 stock solution to final concentrations of 0 μM, 0.1 μM, 0.5 μM, 1 μM, 2 μM, 4 μM and 8 μM in respective wells. Then the 96-well plate was incubated at 37° C. for 48 h and the growth of the cells was analyzed by a CCK-8 method. […] It can be seen from Table 1 that TZ47 also plays a desirable role in inhibiting the growth of other cancer cells including colorectal cancer, leukemia, liver cancer, melanoma, breast cancer and ovarian cancer.

In a further data set the test system is gene E2F2 in A549 cells. As to the kind of experiment: E2F2 expression in A549 cells (real-time quantitative PCR, Western blot). The class given is cell-based. (In general: A western blot detects proteins with antibodies after separation by electrophoresis.)
For another data set, the system named is A549 xenograft. Description: A549 heterotopic xenograft in nude mice. It is filed as in vivo. The note with it: 150 mg/kg. Here is the method: The lung-cancer mouse model was constructed to test the effect of TZ47 on tumor proliferation in vivo. First, A549 cells were inoculated into the mice at the left axilla. When the tumor was proliferated to 100 mm^3, the mice were treated with TZ47 (150 mg/kg), and the weight, tumor volume and diet were observed and recorded. In the sixth week, the mice were anesthetized, and the tumors were photographed and recorded. […] The mice were quickly sacrificed through the dislocation of cervical vertebra, and the solid tumor was collected and weighed.
Next, part of the solid tumor was extracted for the immunohistochemistry assay. […] The solid tumor protein was lysed and analyzed by western blot assay.

In data set [1] the test system is A549 cells. As to the kind of experiment: CCK-8 growth inhibition of A549 lung cancer cells. It is filed as cell-based. The note with it: Homo sapiens. On the procedure:
as §1

For a further data set, the system named is SW480. As to the kind of experiment: Growth inhibition of tumor cells, SW480. The note with it: Homo sapiens, read-out: IC50 against tumor cells, SW480. The class given is cell-based. On the procedure:
as §1

The target of another data set is AURKB (Homo sapiens, UniProt Q96GD4). As to the kind of experiment: Microscale thermophoresis (MST) binding to AURKB protein. Set-up: made in house; host or cells: E. coli BL21. The note with it: prokaryotically expressed GST-AURKB, read-out: dissociation constant of binding to AURKB protein. Here is the method: Thus, it is speculated that the treatment affected the activity of a kinase which was able to phosphorylate the H3S10. The following procedures were conducted to verify whether TZ47 inhibited the activity of AURKB directly. First, prokaryotic expression of AURKB protein and purification were performed and then a microscale thermophoresis (MST) was used to detect the binding between TZ47 and AURKB protein by testing the change of microscale thermophoresis caused by the hydrated layer (generally derived from the change of the structure/conformation of biomolecules) based on the directional movement of particles in a microscopic temperature gradient. […] Flag-tagged AURKB protein was then enriched by M2-flag beads (anti-Flag antibody conjugated) from the lysed liquid of 293T cells and used in the in-vitro kinase activity analysis. It can be seen from FIGS. 6A-6B that the Flag-AURKB protein had kinase activity and can phosphorylate histone H3.
The cDNA of 293T cells of human was used as the template to amplify the AURKB CDS sequence in the presence of LATaq enzyme. […]
1 mL of the eluent was added to the EP tube containing GST beads, rotated at 4° C. for 30 min and centrifuged at 3,000 rpm for 3 min. […] An appropriate amount of the combined supernatant was subjected to SDS-PAGE for the determination of elution efficiency and protein purity and quantity. • b. […]
(In MST a laser heats a spot of the sample, and binding alters the fluorescence response.)

The test system of data set [2] is A549 cells. Description: Colony formation assay. It is filed as cell-based. The note with it: 2 μM, 2 weeks.
The next data set deals with A375. Description: Growth inhibition of tumor cells, A375. It is filed as cell-based. The note with it: Homo sapiens, A-375; read-out: IC50 against tumor cells, A375. Here is the method:
as §1

Chain of AURKB (Q96GD4 1-345 isoform Q96GD4-5): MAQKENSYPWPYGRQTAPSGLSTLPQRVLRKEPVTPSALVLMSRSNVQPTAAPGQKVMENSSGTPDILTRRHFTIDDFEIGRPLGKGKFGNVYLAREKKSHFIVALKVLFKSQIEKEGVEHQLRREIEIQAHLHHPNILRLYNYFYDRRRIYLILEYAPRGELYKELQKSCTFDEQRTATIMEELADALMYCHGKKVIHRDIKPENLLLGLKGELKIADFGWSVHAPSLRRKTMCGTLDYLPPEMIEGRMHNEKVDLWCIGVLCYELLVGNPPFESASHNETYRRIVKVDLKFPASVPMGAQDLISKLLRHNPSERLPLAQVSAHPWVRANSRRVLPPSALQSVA

As for `c1ccc2c(Cc3[nH]c4ccccc4c3Cc3c[nH]c4ccccc34)c[nH]c2c1` [TZ47], the IC50 in the data set on HepG-2 was 2.18 ± 0.12 µM; in the data set with A549 cells [1] (CCK-8, 48 h, read-out: IC50 of TZ47 against A549), 0.73 µM; with A549 cells [1] (read-out: IC50 against tumor cells, A549), 0.73 ± 0.24 µM; in the data set on SW480, 9.43 ± 0.34 µM; in the data set on A375, 1.4 ± 0.11 µM. The E2F2 protein level entry with gene E2F2 in A549 cells (Western blot) was “reduced”. Besides, in the data set with gene E2F2 in A549 cells (real-time quantitative PCR), the “expression level of gene E2F2 (mRNA)” value was “significantly reduced”. Further, in the data set with A549 xenograft, the “behavior, diet and weight of the mice versus control group” value was “no significant difference”. Moreover, in the data set with A549 xenograft (also verified with Ki-67), the “HE staining of solid tumor” value was “large quantity of necrotic tissues”. The “tumor volume versus solvent control group” value in the data set on A549 xenograft (sixth week) was “significantly smaller”. For the same compound, the “solid tumor weight (tumor growth in vivo)” value with A549 xenograft (tumor collected and weighed) was “significant activity in inhibiting the tumor growth”. Besides, the “expression level of AURKB protein in solid tumor” value in the data set on A549 xenograft (western blot of tumor) is listed as “did not affect”. In addition, the “H3S10 ph modification level in solid tumor” value in the data set on A549 xenograft (western blot of tumor, P<0.05) is recorded as “significantly reduced”. Besides, the Kd on AURKB is 0.135 ± 0.002 µM. The “colony formation in control cells” value with A549 cells [2] is “significantly inhibited”.
